We go through 26 compounds from patent US6506772B1, “Substituted [1,2,4]triazolo[1,5a]pyridine derivatives with activity as adenosine receptor ligands” (Hoffmann-La Roche Inc., priority 2000, dated 2003).

Experiment [1] has as its target T1, human adenosine A2A receptor (Homo sapiens, UniProt P29274).
T1 construct: expressed in transfected cells; host or cells: CHO cells, Semliki Forest virus expression system; membrane preparation
Kind of experiment: Human adenosine A2A receptor [3H]-SCH-58261 binding assay. Conditions: for Ki: affinity to human adenosine A2A receptor, read-out: Ki HA2A; for selectivity (A1/A2a): calculated ratio of the affinity to the HA1 receptor to the HA2a receptor.

For experiment [2], the target named is T2, HA1 adenosine receptor (Homo sapiens, UniProt P30542).
T2 sequence (P30542 1-326): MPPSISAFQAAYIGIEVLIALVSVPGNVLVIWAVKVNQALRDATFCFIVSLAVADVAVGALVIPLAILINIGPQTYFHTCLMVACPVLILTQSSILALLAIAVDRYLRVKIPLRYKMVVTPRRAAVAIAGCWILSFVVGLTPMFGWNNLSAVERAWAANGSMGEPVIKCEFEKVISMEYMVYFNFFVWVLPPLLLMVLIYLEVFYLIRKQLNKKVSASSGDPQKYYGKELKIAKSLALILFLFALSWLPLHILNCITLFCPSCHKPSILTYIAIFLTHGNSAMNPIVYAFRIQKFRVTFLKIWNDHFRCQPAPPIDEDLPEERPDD
The experiment is described as follows: Human adenosine A1 receptor affinity (Ki hA1). In kind it is binding. Conditions: affinity to human adenosine A1 receptor.

T1 sequence (P29274 whole entry): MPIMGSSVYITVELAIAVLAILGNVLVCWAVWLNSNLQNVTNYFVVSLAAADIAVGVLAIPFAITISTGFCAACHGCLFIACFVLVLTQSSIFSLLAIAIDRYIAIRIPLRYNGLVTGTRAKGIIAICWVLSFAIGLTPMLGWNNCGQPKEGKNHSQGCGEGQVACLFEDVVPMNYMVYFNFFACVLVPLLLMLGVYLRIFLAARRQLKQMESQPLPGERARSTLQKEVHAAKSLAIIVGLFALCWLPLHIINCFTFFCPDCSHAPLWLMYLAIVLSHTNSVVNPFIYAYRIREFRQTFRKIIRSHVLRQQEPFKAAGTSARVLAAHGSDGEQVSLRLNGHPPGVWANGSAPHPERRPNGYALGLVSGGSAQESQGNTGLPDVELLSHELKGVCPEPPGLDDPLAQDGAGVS

As a reminder, the Ki is the dissociation constant of the complex between target and ligand, obtained from inhibition or displacement. Regarding `COCCN(CCOC)C(=O)c1cc(N)n2nc(-c3ccc(Cl)o3)nc2c1` [Example 260, 5-Amino-2-(5-chloro-furan-2-yl)-[1,2,4]triazolo[1,5-a]pyridine-7-carboxylic acid bis-(2-methoxy-ethyl)-amide], the values for the inhibition constant (Ki) in experiment [1] and in experiment [2] were 13.4 nM and 270 nM, respectively. For the same compound, the “selectivity (A1/A2a)” value in experiment [1] is on record as 20.2.

Take `CCN(Cc1ccccc1)C(=O)c1cc(N)n2nc(-c3ccc(Cl)o3)nc2c1` [Example 261, 5-Amino-2-(5-chloro-furan-2-yl)-[1,2,4]triazolo[1,5-a]pyridine-7-carboxylic acid benzyl-ethyl-amide]: in experiment [1], the Ki was determined as 2.6 nM and the “selectivity (A1/A2a)” value is 14.7. In experiment [2], this compound yielded a Ki of 37.7 nM.

Turning to `CCN(Cc1ccncc1)C(=O)c1cc(N)n2nc(-c3ccc(Cl)o3)nc2c1` [Example 262, 5-Amino-2-(5-chloro-furan-2-yl)-[1,2,4]triazolo[1,5-a]pyridine-7-carboxylic acid ethyl-pyridin-4-ylmethyl-amide], in experiment [1], the Ki is 2.9 nM and the “selectivity (A1/A2a)” value is 36.8. In addition, the affinity in experiment [2] corresponds to a Ki of 107 nM.

Turning to `Nc1cc(C(=O)N2CC=C(c3ccccc3)CC2)cc2nc(-c3ccc(Cl)o3)nn12` [Example 263, [5-Amino-2-(5-chloro-furan-2-yl)-[1,2,4]triazolo[1,5-a]pyridin-7-yl]-(4-phenyl-3,6-dihydro-2H-pyridin-1-yl)-methanone], in experiment [1], the Ki amounted to 39.8 nM and the “selectivity (A1/A2a)” value was 7.6. Further, the affinity in experiment [2], expressed as Ki, was 304 nM.

On to `CCN(C)C(=O)c1cc(N)n2nc(-c3ccc(Br)o3)nc2c1` [Example 264, 5-Amino-2-(5-bromo-furan-2-yl)-[1,2,4]triazolo[1,5-a]pyridine-7-carboxylic acid ethyl-methyl-amide], for which the Ki in experiment [1] turned out to be 6.5 nM; in experiment [2] it was 277 nM. For the same compound, the “selectivity (A1/A2a)” value in experiment [1] is listed as 42.7.

With `Nc1cc(C(=O)N2CC=CC2)cc2nc(-c3ccc(Br)o3)nn12` [Example 265, [5-Amino-2-(5-bromo-furan-2-yl)-[1,2,4]triazolo[1,5-a]pyridin-7-yl]-(2,5-dihydro-pyrrol-1-yl)-methanone], in experiment [1], the Ki is 7.4 nM and the “selectivity (A1/A2a)” value was 76.2. In experiment [2], this compound displayed a Ki of 564 nM.

Turning to `C#CCN(C)C(=O)c1cc(N)n2nc(-c3ccc(Br)o3)nc2c1` [Example 266, 5-Amino-2-(5-bromo-furan-2-yl)-[1,2,4]triazolo[1,5-a]pyridine-7-carboxylic acid methyl-prop-2-ynyl-amide], in experiment [1], the Ki is 3.1 nM and the “selectivity (A1/A2a)” value was 79.4. In experiment [2], this compound returned an inhibition constant Ki of 246 nM.

Turning to `C=CCN(C)C(=O)c1cc(N)n2nc(-c3ccc(Br)o3)nc2c1` [Example 267, 5-Amino-2-(5-bromo-furan-2-yl)-[1,2,4]triazolo[1,5-a]pyridine-7-carboxylic acid allyl-methyl-amide], in experiment [1], the Ki is 4.3 nM and the “selectivity (A1/A2a)” value is listed as 42.0. The same compound gave a Ki in experiment [2] of 181 nM.

Turning to `CC(C)N(C)C(=O)c1cc(N)n2nc(-c3ccc(Br)o3)nc2c1` [Example 269, 5-Amino-2-(5-bromo-furan-2-yl)-[1,2,4]triazolo[1,5-a]pyridine-7-carboxylic acid isopropyl-methyl-amide], the Ki in experiment [1] was found to be 2.7 nM; in experiment [2] it was 110 nM. Further, the “selectivity (A1/A2a)” value in experiment [1] is 40.9.

Regarding `CCCCN(C)C(=O)c1cc(N)n2nc(-c3ccc(Br)o3)nc2c1` [Example 271, 5-Amino-2-(5-bromo-furan-2-yl)-[1,2,4]triazolo[1,5-a]pyridine-7-carboxylic acid butyl-methyl-amide], the Ki in experiment [1] amounted to 6.5 nM; in experiment [2] it was 149 nM. The “selectivity (A1/A2a)” value in experiment [1] is 22.9.

As for `CCN(C(=O)c1cc(N)n2nc(-c3ccc(Br)o3)nc2c1)C(C)C` [Example 272, 5-Amino-2-(5-bromo-furan-2-yl)-[1,2,4]triazolo[1,5-a]pyridine-7-carboxylic acid ethyl-isopropyl-amide], in experiment [1], the Ki turned out to be 2.2 nM and the “selectivity (A1/A2a)” value is given as 36.8. This compound also showed a Ki in experiment [2] of 81 nM.

Regarding `CC1C=CC(C)N1C(=O)c1cc(N)n2nc(-c3ccc(Br)o3)nc2c1` (stereo not drawn) [Example 273, [5-Amino-2-(5-bromo-furan-2-yl)-[1,2,4]triazolo[1,5-a]pyridin-7-yl]-(2,5-dimethyl-2,5-dihydro-pyrrol-1-yl)-methanone], in experiment [1], the inhibitory constant (Ki) was 3.9 nM and the “selectivity (A1/A2a)” value was 64.4. In experiment [2], the affinity, expressed as Ki, was 251 nM.

Turning to `C=CCN(CC=C)C(=O)c1cc(N)n2nc(-c3ccc(Br)o3)nc2c1` [Example 274, 5-Amino-2-(5-bromo-furan-2-yl)-[1,2,4]triazolo[1,5-a]pyridine-7-carboxylic acid diallylamide], the results for the inhibition constant (Ki) in experiment [1] and in experiment [2] were 2.8 nM and 116 nM, respectively. Besides, the “selectivity (A1/A2a)” value in experiment [1] is on record as 41.6.

On to `CC1CCC(C)N1C(=O)c1cc(N)n2nc(-c3ccc(Br)o3)nc2c1` (stereo not drawn) [Example 275, [5-Amino-2-(5-bromo-furan-2-yl)-[1,2,4]triazolo[1,5-a]pyridin-7-yl]-(2,5-dimethyl-pyrrolidin-1-yl)-methanone], for which the values for the Ki in experiment [1] and in experiment [2] were 5.4 nM and 209 nM, respectively. For the same compound, the “selectivity (A1/A2a)” value in experiment [1] is given as 38.7.

In the case of `CC(C)N(C(=O)c1cc(N)n2nc(-c3ccc(Br)o3)nc2c1)C(C)C` [Example 276, 5-Amino-2-(5-bromo-furan-2-yl)-[1,2,4]triazolo[1,5-a]pyridine-7-carboxylic acid diisopropylamide], in experiment [1], the Ki was 10.1 nM and the “selectivity (A1/A2a)” value is recorded as 22.6. Further, the affinity in experiment [2] corresponds to a Ki of 229 nM.

For `CCCCN(CC)C(=O)c1cc(N)n2nc(-c3ccc(Br)o3)nc2c1` [Example 277, 5-Amino-2-(5-bromo-furan-2-yl)-[1,2,4]triazolo[1,5-a]pyridine-7-carboxylic acid butyl-ethyl-amide], in experiment [1], the Ki is 3.2 nM and the “selectivity (A1/A2a)” value is given as 40.3. This compound came in with a Ki in experiment [2] of 129 nM.

As to `CCCCCN(C)C(=O)c1cc(N)n2nc(-c3ccc(Br)o3)nc2c1` [Example 278, 5-Amino-2-(5-bromo-furan-2-yl)-[1,2,4]triazolo[1,5-a]pyridine-7-carboxylic acid methyl-pentyl-amide], in experiment [1], the Ki came out at 5.6 nM and the “selectivity (A1/A2a)” value is given as 16.8. The Ki in experiment [2] was 94.3 nM.

For `CN(C)CCN(C)C(=O)c1cc(N)n2nc(-c3ccc(Br)o3)nc2c1` [Example 279, 5-Amino-2-(5-bromo-furan-2-yl)-[1,2,4]triazolo[1,5-a]pyridine-7-carboxylic acid (2-dimethylamino-ethyl)-methyl-amide], in experiment [1], the Ki worked out at 124 nM and the “selectivity (A1/A2a)” value was 8.5. The compound also came in with a Ki in experiment [2] of 1060 nM.

For `Nc1cc(C(=O)N2CC=CC2)cc2nc(-c3nccs3)nn12` [Example 281, (5-Amino-2-thiazol-2-yl-[1,2,4]triazolo[1,5-a]pyridin-7-yl)-(2,5-dihydro-pyrrol-1-yl)-methanone], in experiment [1], the Ki turned out to be 83.7 nM and the “selectivity (A1/A2a)” value is listed as 51.9. In experiment [2], this compound gave a Ki of 4340 nM.

For `C#CCN(C)C(=O)c1cc(N)n2nc(-c3nccs3)nc2c1` [Example 282, 5-Amino-2-thiazol-2-yl-[1,2,4]triazolo[1,5-a]pyridine-7-carboxylic acid methyl-prop-2-ynyl-amide], in experiment [1], the Ki came out at 85.2 nM and the “selectivity (A1/A2a)” value is reported as 48.5. The compound also displayed a Ki in experiment [2] of 4130 nM.

As to `C=CCN(C)C(=O)c1cc(N)n2nc(-c3nccs3)nc2c1` [Example 283, 5-Amino-2-thiazol-2-yl-[1,2,4]triazolo[1,5-a]pyridine-7-carboxylic acid allyl-methyl-amide], in experiment [1], the Ki amounted to 116 nM and the “selectivity (A1/A2a)” value is 27.0. The compound further gave a Ki in experiment [2] of 3130 nM.

Take `CCCN(C)C(=O)c1cc(N)n2nc(-c3nccs3)nc2c1` [Example 284, 5-Amino-2-thiazol-2-yl-[1,2,4]triazolo[1,5-a]pyridine-7-carboxylic acid methyl-propyl-amide]: in experiment [1], the Ki stood at 132 nM and the “selectivity (A1/A2a)” value was 29.5. The compound also came in with an inhibition constant (Ki) in experiment [2] of 3890 nM.

Turning to `CC(C)N(C)C(=O)c1cc(N)n2nc(-c3nccs3)nc2c1` [Example 285, 5-Amino-2-thiazol-2-yl-[1,2,4]triazolo[1,5-a]pyridine-7-carboxylic acid isopropyl-methyl-amide], the results for the Ki in experiment [1] and in experiment [2] were 83.5 nM and 2720 nM, respectively. Moreover, the “selectivity (A1/A2a)” value in experiment [1] is on record as 32.6.

With `CC1CCCN1C(=O)c1cc(N)n2nc(-c3nccs3)nc2c1` (stereo not drawn) [Example 286, (5-Amino-2-thiazol-2-yl-[1,2,4]triazolo[1,5-a]pyridin-7-yl)-(2-methyl-pyrrolidin-1-yl)-methanone], the Ki is 32.4 nM in experiment [1] and 2970 nM in experiment [2]. For the same compound, the “selectivity (A1/A2a)” value in experiment [1] is recorded as 91.8.

For `CCCCN(C)C(=O)c1cc(N)n2nc(-c3nccs3)nc2c1` [Example 287, 5-Amino-2-thiazol-2-yl-[1,2,4]triazolo[1,5-a]pyridine-7-carboxylic acid butyl-methyl-amide], in experiment [1], the inhibitory constant (Ki) stood at 142 nM and the “selectivity (A1/A2a)” value is listed as 15.4. In experiment [2], this compound showed a Ki of 2190 nM.

`CCN(C(=O)c1cc(N)n2nc(-c3nccs3)nc2c1)C(C)C` [Example 288, 5-Amino-2-thiazol-2-yl-[1,2,4]triazolo[1,5-a]pyridine-7-carboxylic acid ethyl-isopropyl-amide]: in experiment [1], the Ki was determined as 66.6 nM and the “selectivity (A1/A2a)” value is on record as 21.0. This compound returned a Ki in experiment [2] of 1400 nM.
